Measurements reported in patent publication US20070032477A1, “Pteridine derivatives useful for making pharmaceutical compositions” (priority 2003, published 2007).

Key:
[1] = test system: mixed lymphocyte reaction (PBMC with allogeneic PBMC or Eppstein-Barr Virus-transformed human B cells as stimulator cells); assay: Mixed lymphocyte reaction (MLR) assay; assay type: cell-based; settings: lowest concentration giving 50% suppression of the MLR; [3H]-thymidine
[2] = test system: production of TNF-α by PBMC in response to stimulation by LPS; assay: TNF-α assay; assay type: cell-based, human; settings: LPS 1 μg/ml, 72 hours, sandwich ELISA
In short: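 Cells were LPS-stimulated (1 μg/ml final) peripheral blood mononuclear cells at 10^6/ml, exposed 72 h at 37 °C to 0.1, 1 or 10 μM test compound.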

[3] = test system: production of IL-1 β by PBMC in response to stimulation by LPS; assay: IL-1 β assay; assay type: cell-based, human; settings: LPS 1 μg/ml, 72 hours, sandwich ELISA
In short: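 IL-1β release was measured by sandwich ELISA (450 nm, standard curve, pg/ml) and expressed as % suppression. Density-gradient-isolated PBMC at 10^6 cells/ml received LPS at 1 μg/ml plus test compound at 0.1 μM, 1 μM or 10 μM, incubated 72 h at 37 °C.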

[4] = Plasma levels after oral administration in healthy mice; assay type: in vivo, C57BL/6 mice
Experimental: Each group of 6 mice received the indicated dose at time point 0 and were bled at 1, 3 and 5 hours after compound administration. Quantification was performed using a calibration curve of known compound concentrations spiked in control serum.
The plasma levels of the tested compound (example 176) was evaluated in C57BL/6 mice 8-10 weeks old Harlan, weighing 18.6-22.0 g after oral administration of 20, 10, 5 and 1 mg/kg, respectively (n=6 per dose). The tested compound (example 176) was dissolved in water to the appropriate concentration in order to deliver a constant gavage volume of 10 μl/g of body weight. Blood was collected by eye bleeding with heparinized capillaries at 1, 3, and 5 hours after dosing from each animal. The plasma fraction was immediately separated by centrifugation for 2 minutes at 12,000 g and stored at −80° C. until analysis. Each plasma sample was spiked with internal standard followed by the addition of 4 volumes of methanol. The samples were kept for 30 minutes on ice prior to centrifugation (10 minutes at 12,000 g) in order to remove precipitated proteins. The supernatant was analyzed for the presence of the tested compound (example 176), using LC/MS/MS. As standard for the bio-analysis, the tested compound (example 176) was diluted stepwise; each dilution was added to control plasma; additionally spiked with internal standard, giving rise to standard curves from 200 to 40,000 nM.

## COc1ccc(-c2cnc3nc(N)nc(N4CCN(C(=O)COc5ccccc5)CC4)c3n2)cc1OC [Example 17, 2-amino-4-[(N-phenoxyacetyl)-piperazin-1-yl]-6-(3,4-dimethoxy-phenyl)pteridine]
[1]
  IC50: 0.0038 µM
[2]
  IC50: 0.08 µM
[3]
  IC50: 2.8 µM

## COc1ccc(-c2cnc3nc(N)nc(N4CCN(c5ccc(C)cc5)CC4)c3n2)cc1OC [Example 176, 2-amino-6-(3,4-dimethoxyphenyl)-4-((4-methylphenyl)-piperazin-1-yl)pteridine]
[1]
  IC50: 0.3 µM
[2]
  IC50: < 0.01 µM
[3]
  IC50: 4.9 µM
[4]; 20 mg/kg oral
  serum level 5 hours after administration compared with TNF-alpha assay IC50: still above the IC50 value of the TNF-alpha assay
[4]; 20 mg/kg oral, one hour after administration
  circulating concentration (peak serum level): approximately 1 μM
[4]; all lower doses (10, 5 and 1 mg/kg oral)
  serum levels after 5 hours compared with TNF assay IC50: lower than the IC50 value in the TNF assay
[4]; oral 1, 5, 10, 20 mg/kg, one hour after administration
  peak serum levels with increasing doses: dose-dependent increase
